# US20130030025A1, “USE OF POTASSIUM CHANNEL BLOCKERS TO TREAT CEREBRAL PALSY” (priority 2011, published 2013)
# Several values for one entry are separate records, joined by “and”; a condition that tells them apart may be missing. Identical values can stand only once. Entries after “also recorded” stand apart in the source; their conditions may differ.
# Key:
# [1] = test system: middle cerebral artery occlusion (MCAO) in rats; experiment: Body swing test (% right swing) after MCAO; type: in vivo, Sprague Dawley rats
# Experimental: 4-AP was evaluated for its ability to promote functional sensorimotor improvement following ischemic stroke in rats with stable motor deficits at times remote from their ischemic events. The animal model mimics the conditions in human ischemic stroke and is produced by middle cerebral artery occlusion (MCAO), which results in extensive infarction in cerebral cortex and striatum, including the cortical spinal tract (white matter). In particular, the MCAO model in Sprague Dawley rats that was utilized in the experiments presented below mimics the conditions in human ischemic stroke. In this experiment, Sprague Dawley rats were anesthetized, subjected to a surgery resulting in middle cerebral artery occlusion (MCAO), treated with and without 4-aminopyridine and behavioral assessments were performed as described below. Surgical Procedure: A small focal stroke (infarct) was made on the right side of the surface of the brain (cerebral cortex) by middle cerebral artery occlusion (MCAO). The right side of the head was shaved with electric clippers (patch of approx 3×5 cm between eye and ear). The region was carefully cleaned with septisol. Using aseptic technique, an incision was made midway between the eye and eardrum canal. The temporalis muscle was isolated, bisected, and reflected. A small window of bone was removed via drill and rongeurs (subtemporal craniectomy) to expose the middle cerebral artery (MCA). Care was taken not to remove the zygomatic arch or to transect the facial nerve that would impair the ability of the animal to chew after surgery. […] The MCA was then transected. The temporalis muscle was then repositioned, and the incision was closed subcutaneously with sutures. The skin incision was closed with surgical staples (2-3 required). Throughout the procedure, body temperature was maintained at 37.0°±1° C., using a self-regulating heating pad connected to a rectal thermometer. Dosing: Rats were treated in accordance with the dosing schedule shown in Tables 1A, 1B, and FIG. 2, with each Phase being a two week period of time. A solution of 4-AP was used in this experiment. Dosing was started at 4 weeks after ischemic event. Treatment groups: Dosing was started 4 weeks after pMCAO surgery. During these 4 weeks, weekly behavioral assessments, as defined below, were performed. Two dose levels of 4-AP plus vehicle control were assessed, with treatment starting at 4 weeks after ischemic event. All dosing was via gastric gavage, volume not to exceed 2 mL/kg. Animals were given the first dose and behavioral assessments were performed starting 60 minutes after dosing. Animals then received the second dose that day at the appropriate time and b.i.d (preferably every 12 hours) thereafter for 2 more days (3 total days of dosing, 5 total doses). One hour after the 5th dose, animals were subjected to behavioral assessments as defined below. Following the final behavioral assessment, drug was withdrawn for 10 or 11 days, behavior was re-assessed, and then animals were re-challenged with a cross-over treatment (Phase II of Table 1B) as described in Tables 1A, 1B, followed by the same behavioral testing and dosing regimen. This cross-over was repeated one more time as well (Phase III of Table 1B) (see FIG. 2). Behavioral test details: Behavioral evaluations were done by investigators blinded to treatment assignment. As described above, behavioral assessments were timed exactly with dosing times. Animals were given the first dose, behavioral assessments were performed starting 60 minutes later, and blood was collected 90 minutes after dosing. Animals then received the second dose that day at the appropriate time and b.i.d (preferably every 12 hours) thereafter for 2 more days (3 total days of dosing, 5 total doses). One hour after the 5th dose, animals were subjected to behavioral testing. […]
# [2] = test system: middle cerebral artery occlusion (MCAO) in rats; experiment: Cylinder test, total movement after MCAO; type: in vivo, Sprague Dawley rats
# Experimental: The Y axis represents the behavioral score. […] Treatment groups: Dosing was started 4 weeks after pMCAO surgery. During these 4 weeks, weekly behavioral assessments, as defined below, were performed. Two dose levels of 4-AP plus vehicle control were assessed, with treatment starting at 4 weeks after ischemic event. All dosing was via gastric gavage, volume not to exceed 2 mL/kg. Animals were given the first dose and behavioral assessments were performed starting 60 minutes after dosing. Animals then received the second dose that day at the appropriate time and b.i.d (preferably every 12 hours) thereafter for 2 more days (3 total days of dosing, 5 total doses). One hour after the 5th dose, animals were subjected to behavioral assessments as defined below. Following the final behavioral assessment, drug was withdrawn for 10 or 11 days, behavior was re-assessed, and then animals were re-challenged with a cross-over treatment (Phase II of Table 1B) as described in Tables 1A, 1B, followed by the same behavioral testing and dosing regimen. This cross-over was repeated one more time as well (Phase III of Table 1B) (see FIG. 2). Behavioral test details: Behavioral evaluations were done by investigators blinded to treatment assignment. As described above, behavioral assessments were timed exactly with dosing times. Animals were given the first dose, behavioral assessments were performed starting 60 minutes later, and blood was collected 90 minutes after dosing. Animals then received the second dose that day at the appropriate time and b.i.d (preferably every 12 hours) thereafter for 2 more days (3 total days of dosing, 5 total doses). One hour after the 5th dose, animals were subjected to behavioral testing. Following the final behavioral assessment, drug was withdrawn for 10 or 11 days, behavior was re-assessed, and then animals were re-challenged with a cross-over treatment as described in Tables 1A, 1B, and FIG. 2, followed by the same behavioral testing and dosing regimen. Evaluation was performed at Day -1 (pre-operation), Day 7, Day 21, Day 30, Day 32, Day 44, Day 46, Day 58, Day 60. This test assessed limb use asymmetry. Rats were placed in a transparent cylinder (20 cm in diameter and 30 cm in height) for 3-6 minutes. A mirror was placed behind the cylinder to determine forelimb movements when animal was turned away from the camera. […] Simultaneous use of both left and right forelimbs while contacting the wall during a full rear was also scored. A total number of 20 forelimb placings were counted during a trial. Data was expressed in terms of percent use of the non-impaired and or impaired forelimb relative to the total number of limb use observations for wall movements.
smiles,measurement,setting,value
"Nc1ccncc1 [4-AP, 4-aminopyridine]",Body Swing Test (% right Swing),"[1]; Group I, D30, individual animals",33.33% (3×) and 53.33% and 40.00% (2×) and 30.00% and 36.67% (5×) and 43.33% and 26.67% and 46.67%
same,"Body Swing Test (% right Swing), Mean","[1]; Group I, D30, mean of N 15",37.56%
same,Body Swing Test (% right Swing),"[1]; Group I, D32, individual animals",43.33% (2×) and 50.00% (3×) and 53.33% (3×) and 26.67% and 33.33% (3×) and 40.00% (2×) and 30.00%
same,"Body Swing Test (% right Swing), Mean","[1]; Group I, D32, mean of N 15",42.22%
same,Body Swing Test (% right Swing),"[1]; Group I, D44, low dose phase (inferred), individual animals",33.33% (3×) and 56.67% and 43.33% (3×) and 26.67% (2×) and 50.00% and 40.00% (2×) and 46.67% and 30.00% (2×)
same,"Body Swing Test (% right Swing), Mean","[1]; Group I, D44, low dose phase (inferred), mean of N 15",38.44%
same,Body Swing Test (% right Swing),"[1]; Group I, D46, individual animals",36.67% (3×) and 43.33% (4×) and 33.33% (3×) and 30.00% and 53.33% and 20.00% (2×) and 40.00%
same,"Body Swing Test (% right Swing), Mean","[1]; Group I, D46, mean of N 15",36.44%
same,Body Swing Test (% right Swing),"[1]; Group II, D30, individual animals",20.00% and 40.00% and 16.67% and 30.00% and 36.67% and 33.33% (2×) and 23.33% and 53.33% and 26.67%
same,"Body Swing Test (% right Swing), Mean","[1]; Group II, D30, mean of N 15",32.89%
same,Body Swing Test (% right Swing),"[1]; Group II, D32, individual animals",33.33% (5×) and 40.00% and 43.33% (2×) and 30.00% and 46.67%
same,"Body Swing Test (% right Swing), Mean","[1]; Group II, D32, mean of N 15",37.78%
same,Body Swing Test (% right Swing),"[1]; Group II, D58, individual animals",46.67% (3×) and 33.33% (3×) and 26.67% and 40.00% and 43.33% and 50.00%
same,"Body Swing Test (% right Swing), Mean","[1]; Group II, D58, mean of N 15",40.67%
same,Body Swing Test (% right Swing),"[1]; Group II, D60, individual animals",43.33% and 40.00% (2×) and 33.33% (2×) and 46.67% (2×) and 36.67% and 50.00% (2×)
same,"Body Swing Test (% right Swing), Mean","[1]; Group II, D60, mean of N 15",42.67%
same,"Body Swing Test (% right Swing), Mean","[1]; Group III, D44, high dose phase (inferred), mean of N 15",39.56%
same,"Body Swing Test (% right Swing), Mean","[1]; Group III, D46, high dose phase (inferred), mean of N 15",40.44%
same,"Body Swing Test (% right Swing), Mean","[1]; Group III, D58, low dose phase (inferred), mean of N 15",34.89%
same,"Body Swing Test (% right Swing), Mean","[1]; Group III, D60, low dose phase (inferred), mean of N 15",35.11%
same,effect on global body control (body swing test),"[1]; low or high dose, rats after MCAO, reversible and dose-dependent",effective to improve the percentage of rightward over total swings; also recorded: significant improvement
same,"Cylinder Test (Total Movement), Mean","[2]; Group I, D30, first dosing phase (high dose, inferred)",9.47
same,"Cylinder Test (Total Movement), Mean","[2]; Group I, D32, first dosing phase (high dose, inferred)",16.20
same,"Cylinder Test (Total Movement), Mean","[2]; Group I, D44, second dosing phase (low dose, inferred)",39.20
same,"Cylinder Test (Total Movement), Mean","[2]; Group I, D46, second dosing phase (low dose, inferred)",23.87
same,"Cylinder Test (Total Movement), Mean","[2]; Group II, D30, N 15",46.87
same,"Cylinder Test (Total Movement), Mean","[2]; Group II, D32, N 15",36.20
same,"Cylinder Test (Total Movement), Mean","[2]; Group II, D58, N 15",11.60
same,"Cylinder Test (Total Movement), Mean","[2]; Group II, D60, N 15",12.93
same,"Cylinder Test (Total Movement), Mean","[2]; Group III, D44, N 15",19.13
same,"Cylinder Test (Total Movement), Mean","[2]; Group III, D46, N 15",18.73
same,"Cylinder Test (Total Movement), Mean","[2]; Group III, D58, N 15",32.33
same,"Cylinder Test (Total Movement), Mean","[2]; Group III, D60, N 15",26.67
